Experimental data from patent US20190008819A1, “Methods and Compositions Using Cetyl Myristoleate (CMO) In Medical Treatments” (priority 2017, published 2019).

What was measured:
Type in all cases: in vivo, human
[1] = system: middle age person with complex regional pain syndrome; assay: Case report: complex regional pain syndrome with post-surgery pain
Description: A middle age person with complex regional pain syndrome had post-surgery pain. It was so severe that the person was to have foot amputation for the pain. A dosage of 0.1 milligrams to 10 grams of cetyl myristoleate once to four times per day was administered to the person. Shortly, the person described the pain decreased by 20-30 percent.

[2] = system: middle age person with knee pain; assay: Case report: knee pain, CMO with gabapentin; settings: 0.1 milligrams to 10 grams cetyl myristoleate once to four times per day with appropriate dosage gabapentin; one patient
From the text: A middle age person was taking a brief CMO regime for knee pain.

[3] = system: middle age person with cervical post-surgery syndrome; assay: Case report: cervical post-surgery syndrome; settings: 0.1 milligrams to 10 grams cetyl myristoleate once to four times per day; one patient
From the text: A middle age person experienced cervical post-surgery syndrome.

[4] = system: middle age person with shoulder pain; assay: Case report: shoulder pain, CMO with gabapentin; settings: 0.1 milligrams to 10 grams cetyl myristoleate once to four times per day with an effective dosage gabapentin; one patient
From the text: A middle age person was taking a brief CMO regime for shoulder pain.

CCCC/C=C\CCCCCCCC(=O)OCCCCCCCCCCCCCCCC [cetyl myristoleate, cis-9-Cetyl myristoleate]
pain decreased (patient described) ([1]; 0.1 milligrams to 10 grams cetyl myristoleate once to four times per day, one patient, post-surgery pain): 20-30% | amputation outcome ([1]; patient was to have foot amputation for the pain, 0.1 milligrams to 10 grams once to four times per day): has not undergone amputation | knee pain [2]: decreased dramatically | post-laminectomy syndrome (PLS) [3]: improved significantly | shoulder pain [4]: decreased dramatically
